Where two headings read alike, the source gives them in different places.
Target: T1, human cloned 5-HT6 receptors (Homo sapiens, UniProt P50406)
T1 construct: expressed in transfected cells; host or cells: HeLa cells
Test: 5-HT6 binding affinity, [3H]-LSD displacement on membranes of Hela cells

[1] = [3H]-LSD 3.0 nM, Hela cell membranes, 120 min, room temperature, read-out: 5-HT6 Binding Ki

T1 sequence (P50406 whole entry): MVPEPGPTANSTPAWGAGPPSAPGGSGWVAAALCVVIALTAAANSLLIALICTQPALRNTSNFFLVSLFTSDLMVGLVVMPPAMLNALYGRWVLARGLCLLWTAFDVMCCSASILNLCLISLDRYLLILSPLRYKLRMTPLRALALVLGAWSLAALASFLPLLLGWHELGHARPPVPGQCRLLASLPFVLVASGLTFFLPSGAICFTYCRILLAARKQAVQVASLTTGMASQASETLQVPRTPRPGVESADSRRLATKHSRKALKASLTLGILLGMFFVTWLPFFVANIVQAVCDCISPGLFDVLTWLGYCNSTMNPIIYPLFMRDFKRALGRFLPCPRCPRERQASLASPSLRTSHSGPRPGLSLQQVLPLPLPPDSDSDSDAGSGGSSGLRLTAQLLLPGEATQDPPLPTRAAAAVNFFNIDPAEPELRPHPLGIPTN

Structure (SMILES)	Ki [1] [nM]	also measured
Cn1nc(S(=O)(=O)c2cccc3ccccc23)c2cc(N3CC[C@@H](N)C3)ccc21 [Example 15, (3R)-1-[1-methyl-3-(naphthalen-1-ylsulfonyl)-1H-indazol-5-yl]pyrrolidin-3-amine]	–	Ki (read-out: 5-HT6 Binding Ki): 21.1 nM
CC(C)n1nc2ccc(N3CC[C@H](N)C3)cc2c1S(=O)(=O)c1cccc2ccccc12 [Example 19]	–	Ki: 48.7 nM
NC1CCN(c2ccc3[nH]nc(S(=O)(=O)c4cccc(Cl)c4)c3c2)CC1 [Example 5, 1-{3-[(3-chlorophenyl)sulfonyl]-1H-indazol-5-yl}piperidin-4-amine]	–	Ki (read-out: 5-HT6 Binding Ki): 8 nM
CC(C)Cn1nc2ccc(N3CC[C@H](N)C3)cc2c1S(=O)(=O)c1cccc2ccccc12 [Example 20]	–	Ki: 75.8 nM
Cn1nc2ccc(N3CC[C@H](N)C3)cc2c1S(=O)(=O)c1cccc2ccccc12 [Example 18]	–	Ki: 54.3 nM
CC(C)Cn1nc(S(=O)(=O)c2cccc3ccccc23)c2cc(N3CC[C@@H](N)C3)ccc21 [Example 17, (R)-1-(1-isobutyl-3-(naphthalen-1-ylsulfonyl)-1H-indazol-5-yl)pyrrolidin-3-amine]	–	Ki (read-out: 5-HT6 Binding Ki): 36.9 nM

More lines, main results first:

Ki [1] [nM]	Structure (SMILES)	also measured
1.1	CN(C)[C@@H]1CCN(c2ccc3[nH]nc(S(=O)(=O)c4cccc5ccccc45)c3c2)C1 [Example 12, (R)—N,N-dimethyl-1-(3-(naphthalen-1-ylsulfonyl)-1H-indazol-5-yl)pyrrolidin-3-amine]	–
3.5	NC1CN(c2ccc3[nH]nc(S(=O)(=O)c4cccc5ccccc45)c3c2)C1 [Example 8, 1-[3-(1-naphthylsulfonyl)-1H-indazol-5-yl]azetidin-3-amine]	–
50	CN(C)[C@H]1CCN(c2ccc3[nH]nc(S(=O)(=O)c4cccc5ccccc45)c3c2)C1 [Example 13, (S)—N,N-dimethyl-1-(3-(naphthalen-1-ylsulfonyl)-1H-indazol-5-yl)pyrrolidin-3-amine]	–
146	N[C@@H]1CCN(c2ccc3[nH]nc(S(=O)(=O)c4ccccc4)c3c2)C1 [Example 11, (3R)-1-(3-phenylsulfonyl-1H-indazol-5-yl)pyrrolidin-3-amine]	–
131	N[C@H]1CCN(c2ccc3[nH]nc(S(=O)(=O)c4ccccc4)c3c2)C1 [Example 10, (3S)-1-(3-phenylsulfonyl-1H-indazol-5-yl)pyrrolidin-3-amine]	–
13.7	CC(C)n1nc(S(=O)(=O)c2cccc3ccccc23)c2cc(N3CC[C@@H](N)C3)ccc21 [Example 16, (R)-1-(1-isopropyl-3-(naphthalen-1-ylsulfonyl)-1H-indazol-5-yl)pyrrolidin-3-amine]	–
1.1	NC1CN(c2ccc3[nH]nc(S(=O)(=O)c4ccccc4)c3c2)C1 [Example 14, 1-(3-(phenylsulfonyl)-1H-indazol-5-yl)azetidin-3-amine]	–
